# Experimental data as given in ChEMBL document CHEMBL2086385, “Synthesis and antimicrobial evaluation of L-phenylalanine-derived C5-substituted rhodanine and chalcone derivatives containing thiobarbituric acid or 2-thioxo-4-thiazolidinone” (2012).
# Legend:
# Type in all cases: functional
# Staphylococcus aureus [1] = test: Antibacterial activity against Staphylococcus aureus KCTC 209 after 24 hrs by broth microdilution method; conditions: KCTC 209, 24 h
# Staphylococcus aureus [2] = test: Antibacterial activity against Staphylococcus aureus KCTC 503 after 24 hrs by broth microdilution method; conditions: KCTC 503, 24 h
# Staphylococcus aureus [3] = test: Antibacterial activity against Staphylococcus aureus RN4220 after 24 hrs by broth microdilution method; conditions: RN4220, 24 h
# Escherichia coli = test: Antibacterial activity against Escherichia coli CCARM 1356 after 24 hrs by broth microdilution method; conditions: CCARM 1356, 24 h
# Staphylococcus aureus [4] = test: Antibacterial activity against methicillin-resistant Staphylococcus aureus CCARM 3167 clinical isolate after 24 hrs by broth microdilution method; conditions: CCARM 3167, 24 h
# Staphylococcus aureus [5] = test: Antibacterial activity against methicillin-resistant Staphylococcus aureus CCARM 3506 clinical isolate after 24 hrs by broth microdilution method; conditions: CCARM 3506, 24 h
# Staphylococcus aureus [6] = test: Antibacterial activity against quinolone-resistant Staphylococcus aureus CCARM 3505 clinical isolate after 24 hrs by broth microdilution method; conditions: CCARM 3505, 24 h
# Staphylococcus aureus [7] = test: Antibacterial activity against quinolone-resistant Staphylococcus aureus CCARM 3519 clinical isolate after 24 hrs by broth microdilution method; conditions: CCARM 3519, 24 h
# Staphylococcus aureus [8] = test: Ratio of norfloxacin MIC to compound MIC for methicillin-resistant Staphylococcus aureus CCARM 3167 clinical isolate
# Staphylococcus aureus [9] = test: Ratio of norfloxacin MIC to compound MIC for methicillin-resistant Staphylococcus aureus CCARM 3506 clinical isolate
# Staphylococcus aureus [10] = test: Ratio of norfloxacin MIC to compound MIC for quinolone-resistant Staphylococcus aureus CCARM 3505 clinical isolate
# Staphylococcus aureus [11] = test: Ratio of norfloxacin MIC to compound MIC for quinolone-resistant Staphylococcus aureus CCARM 3519 clinical isolate
smiles,measurement,setting,value
O=C(/C=C/c1ccc(/C=C2\SC(=S)N([C@@H](Cc3ccccc3)C(=O)O)C2=O)cc1)c1ccc2ccccc2c1,MIC,Staphylococcus aureus [1],8 µg/mL
same,MIC,Staphylococcus aureus [2],8 µg/mL
same,MIC,Staphylococcus aureus [3],2 µg/mL
same,MIC,Escherichia coli,> 64 µg/mL
same,MIC,Staphylococcus aureus [4],2 µg/mL
same,MIC,Staphylococcus aureus [5],4 µg/mL
same,MIC,Staphylococcus aureus [6],2 µg/mL
same,MIC,Staphylococcus aureus [7],2 µg/mL
same,Ratio,Staphylococcus aureus [8],2
same,Ratio,Staphylococcus aureus [9],2
same,Ratio,Staphylococcus aureus [10],2
same,Ratio,Staphylococcus aureus [11],2
O=C(/C=C/c1ccc(/C=C2\SC(=S)N([C@@H](Cc3ccccc3)C(=O)O)C2=O)cc1)c1ccc(Cl)cc1,MIC,Staphylococcus aureus [1],8 µg/mL
same,MIC,Staphylococcus aureus [2],8 µg/mL
same,MIC,Staphylococcus aureus [3],2 µg/mL
same,MIC,Escherichia coli,> 64 µg/mL
same,MIC,Staphylococcus aureus [4],2 µg/mL
same,MIC,Staphylococcus aureus [5],4 µg/mL
same,MIC,Staphylococcus aureus [6],4 µg/mL
same,MIC,Staphylococcus aureus [7],4 µg/mL
same,Ratio,Staphylococcus aureus [8],2
same,Ratio,Staphylococcus aureus [9],2
same,Ratio,Staphylococcus aureus [10],2
same,Ratio,Staphylococcus aureus [11],2
O=C(/C=C/c1ccc(/C=C2\SC(=S)N([C@@H](Cc3ccccc3)C(=O)O)C2=O)cc1)c1ccc(Cl)cc1Cl,MIC,Staphylococcus aureus [1],16 µg/mL
same,MIC,Staphylococcus aureus [2],16 µg/mL
same,MIC,Staphylococcus aureus [3],4 µg/mL
same,MIC,Escherichia coli,> 64 µg/mL
same,MIC,Staphylococcus aureus [4],4 µg/mL
same,MIC,Staphylococcus aureus [5],4 µg/mL
same,MIC,Staphylococcus aureus [6],4 µg/mL
same,MIC,Staphylococcus aureus [7],16 µg/mL
same,Ratio,Staphylococcus aureus [8],2
same,Ratio,Staphylococcus aureus [9],2
same,Ratio,Staphylococcus aureus [10],2
same,Ratio,Staphylococcus aureus [11],2
O=C(/C=C/c1ccc(/C=C2\SC(=S)N([C@@H](Cc3ccccc3)C(=O)O)C2=O)cc1)c1ccccc1Br,MIC,Staphylococcus aureus [1],16 µg/mL
same,MIC,Staphylococcus aureus [2],16 µg/mL
same,MIC,Staphylococcus aureus [3],2 µg/mL
same,MIC,Escherichia coli,> 64 µg/mL
same,MIC,Staphylococcus aureus [4],2 µg/mL
same,MIC,Staphylococcus aureus [5],4 µg/mL
same,MIC,Staphylococcus aureus [6],4 µg/mL
same,MIC,Staphylococcus aureus [7],4 µg/mL
same,Ratio,Staphylococcus aureus [8],2
same,Ratio,Staphylococcus aureus [9],2
same,Ratio,Staphylococcus aureus [10],2
same,Ratio,Staphylococcus aureus [11],2
O=C(/C=C/c1ccc(/C=C2\SC(=S)N([C@@H](Cc3ccccc3)C(=O)O)C2=O)cc1)c1cccc(Br)c1,MIC,Staphylococcus aureus [1],16 µg/mL
same,MIC,Staphylococcus aureus [2],16 µg/mL
same,MIC,Staphylococcus aureus [3],8 µg/mL
same,MIC,Escherichia coli,> 64 µg/mL
same,MIC,Staphylococcus aureus [4],8 µg/mL
same,MIC,Staphylococcus aureus [5],8 µg/mL
same,MIC,Staphylococcus aureus [6],8 µg/mL
same,MIC,Staphylococcus aureus [7],16 µg/mL
same,Ratio,Staphylococcus aureus [8],2
same,Ratio,Staphylococcus aureus [9],2
same,Ratio,Staphylococcus aureus [10],2
same,Ratio,Staphylococcus aureus [11],2
O=C(/C=C/c1ccc(/C=C2\SC(=S)N([C@@H](Cc3ccccc3)C(=O)O)C2=O)cc1)c1ccc(Br)cc1,MIC,Staphylococcus aureus [1],4 µg/mL
same,MIC,Staphylococcus aureus [2],4 µg/mL
same,MIC,Staphylococcus aureus [3],2 µg/mL
same,MIC,Escherichia coli,> 64 µg/mL
same,MIC,Staphylococcus aureus [4],2 µg/mL
same,MIC,Staphylococcus aureus [5],2 µg/mL
same,MIC,Staphylococcus aureus [6],8 µg/mL
same,MIC,Staphylococcus aureus [7],2 µg/mL
same,Ratio,Staphylococcus aureus [8],2
same,Ratio,Staphylococcus aureus [9],2
same,Ratio,Staphylococcus aureus [10],2
same,Ratio,Staphylococcus aureus [11],2
Cc1ccc(C(=O)/C=C/c2ccc(/C=C3\SC(=S)N([C@@H](Cc4ccccc4)C(=O)O)C3=O)cc2)cc1,MIC,Staphylococcus aureus [1],8 µg/mL
same,MIC,Staphylococcus aureus [2],8 µg/mL
same,MIC,Staphylococcus aureus [3],2 µg/mL
same,MIC,Escherichia coli,> 64 µg/mL
same,MIC,Staphylococcus aureus [4],2 µg/mL
same,MIC,Staphylococcus aureus [5],2 µg/mL
same,MIC,Staphylococcus aureus [6],8 µg/mL
same,MIC,Staphylococcus aureus [7],2 µg/mL
same,Ratio,Staphylococcus aureus [8],2
same,Ratio,Staphylococcus aureus [9],2
same,Ratio,Staphylococcus aureus [10],2
same,Ratio,Staphylococcus aureus [11],2
Cc1ccc(C(=O)/C=C/c2ccc(/C=C3\SC(=S)N([C@@H](Cc4ccccc4)C(=O)O)C3=O)cc2)c(C)c1,MIC,Staphylococcus aureus [1],16 µg/mL
same,MIC,Staphylococcus aureus [2],16 µg/mL
same,MIC,Staphylococcus aureus [3],4 µg/mL
same,MIC,Escherichia coli,> 64 µg/mL
same,MIC,Staphylococcus aureus [4],4 µg/mL
same,MIC,Staphylococcus aureus [5],4 µg/mL
same,MIC,Staphylococcus aureus [6],8 µg/mL
same,MIC,Staphylococcus aureus [7],8 µg/mL
same,Ratio,Staphylococcus aureus [8],2
same,Ratio,Staphylococcus aureus [9],2
same,Ratio,Staphylococcus aureus [10],2
same,Ratio,Staphylococcus aureus [11],2
COc1ccccc1C(=O)/C=C/c1ccc(/C=C2\SC(=S)N([C@@H](Cc3ccccc3)C(=O)O)C2=O)cc1,MIC,Staphylococcus aureus [1],16 µg/mL
same,MIC,Staphylococcus aureus [2],16 µg/mL
same,MIC,Staphylococcus aureus [3],8 µg/mL
same,MIC,Escherichia coli,> 64 µg/mL
same,MIC,Staphylococcus aureus [4],8 µg/mL
same,MIC,Staphylococcus aureus [5],8 µg/mL
same,MIC,Staphylococcus aureus [6],4 µg/mL
same,MIC,Staphylococcus aureus [7],16 µg/mL
same,Ratio,Staphylococcus aureus [8],2
same,Ratio,Staphylococcus aureus [9],2
same,Ratio,Staphylococcus aureus [10],2
same,Ratio,Staphylococcus aureus [11],2
COc1cccc(C(=O)/C=C/c2ccc(/C=C3\SC(=S)N([C@@H](Cc4ccccc4)C(=O)O)C3=O)cc2)c1,MIC,Staphylococcus aureus [1],16 µg/mL
same,MIC,Staphylococcus aureus [2],16 µg/mL
same,MIC,Staphylococcus aureus [3],4 µg/mL
same,MIC,Escherichia coli,> 64 µg/mL
same,MIC,Staphylococcus aureus [4],8 µg/mL
same,MIC,Staphylococcus aureus [5],8 µg/mL
same,MIC,Staphylococcus aureus [6],8 µg/mL
same,MIC,Staphylococcus aureus [7],8 µg/mL
same,Ratio,Staphylococcus aureus [8],2
same,Ratio,Staphylococcus aureus [9],2
same,Ratio,Staphylococcus aureus [10],2
same,Ratio,Staphylococcus aureus [11],2
COc1ccc(C(=O)/C=C/c2ccc(/C=C3\SC(=S)N([C@@H](Cc4ccccc4)C(=O)O)C3=O)cc2)cc1,MIC,Staphylococcus aureus [1],16 µg/mL
same,MIC,Staphylococcus aureus [2],16 µg/mL
same,MIC,Staphylococcus aureus [3],4 µg/mL
same,MIC,Escherichia coli,> 64 µg/mL
same,MIC,Staphylococcus aureus [4],4 µg/mL
same,MIC,Staphylococcus aureus [5],4 µg/mL
same,MIC,Staphylococcus aureus [6],4 µg/mL
same,MIC,Staphylococcus aureus [7],4 µg/mL
same,Ratio,Staphylococcus aureus [8],2
same,Ratio,Staphylococcus aureus [9],2
same,Ratio,Staphylococcus aureus [10],2
same,Ratio,Staphylococcus aureus [11],2
CC(=O)Nc1ccc(C(=O)/C=C/c2ccc(/C=C3\SC(=S)N([C@@H](Cc4ccccc4)C(=O)O)C3=O)cc2)cc1,MIC,Staphylococcus aureus [1],16 µg/mL
same,MIC,Staphylococcus aureus [2],16 µg/mL
same,MIC,Staphylococcus aureus [3],4 µg/mL
same,MIC,Escherichia coli,> 64 µg/mL
same,MIC,Staphylococcus aureus [4],4 µg/mL
same,MIC,Staphylococcus aureus [5],2 µg/mL
same,MIC,Staphylococcus aureus [6],4 µg/mL
same,MIC,Staphylococcus aureus [7],4 µg/mL
same,Ratio,Staphylococcus aureus [8],2
same,Ratio,Staphylococcus aureus [9],2
same,Ratio,Staphylococcus aureus [10],2
same,Ratio,Staphylococcus aureus [11],2
O=C(/C=C/c1ccc(/C=C2\SC(=S)N([C@@H](Cc3ccccc3)C(=O)O)C2=O)cc1)c1ccccc1,MIC,Staphylococcus aureus [1],16 µg/mL
same,MIC,Staphylococcus aureus [2],8 µg/mL
same,MIC,Staphylococcus aureus [3],4 µg/mL
same,MIC,Escherichia coli,> 64 µg/mL
same,MIC,Staphylococcus aureus [4],4 µg/mL
same,MIC,Staphylococcus aureus [5],4 µg/mL
same,MIC,Staphylococcus aureus [6],8 µg/mL
same,MIC,Staphylococcus aureus [7],4 µg/mL
same,Ratio,Staphylococcus aureus [8],2
same,Ratio,Staphylococcus aureus [9],2
same,Ratio,Staphylococcus aureus [10],2
same,Ratio,Staphylococcus aureus [11],2
O=C(O)[C@H](Cc1ccccc1)N1C(=O)/C(=C\c2ccc(OCc3cccc(F)c3)cc2)SC1=S,MIC,Staphylococcus aureus [1],16 µg/mL
same,MIC,Staphylococcus aureus [2],16 µg/mL
same,MIC,Staphylococcus aureus [3],4 µg/mL
same,MIC,Escherichia coli,> 64 µg/mL
same,MIC,Staphylococcus aureus [4],8 µg/mL
same,MIC,Staphylococcus aureus [5],8 µg/mL
same,MIC,Staphylococcus aureus [6],8 µg/mL
same,MIC,Staphylococcus aureus [7],8 µg/mL
same,Ratio,Staphylococcus aureus [8],2
same,Ratio,Staphylococcus aureus [9],2
same,Ratio,Staphylococcus aureus [10],2
same,Ratio,Staphylococcus aureus [11],2
O=C(O)[C@H](Cc1ccccc1)N1C(=O)/C(=C\c2ccc(OCc3ccc(F)cc3)cc2)SC1=S,MIC,Staphylococcus aureus [1],8 µg/mL
same,MIC,Staphylococcus aureus [2],8 µg/mL
same,MIC,Staphylococcus aureus [3],4 µg/mL
same,MIC,Escherichia coli,> 64 µg/mL
same,MIC,Staphylococcus aureus [4],8 µg/mL
same,MIC,Staphylococcus aureus [5],8 µg/mL
same,MIC,Staphylococcus aureus [6],8 µg/mL
same,MIC,Staphylococcus aureus [7],8 µg/mL
same,Ratio,Staphylococcus aureus [8],2
same,Ratio,Staphylococcus aureus [9],2
same,Ratio,Staphylococcus aureus [10],2
same,Ratio,Staphylococcus aureus [11],2
O=C(O)[C@H](Cc1ccccc1)N1C(=O)/C(=C\c2ccc(OCc3ccccc3Cl)cc2)SC1=S,MIC,Staphylococcus aureus [1],8 µg/mL
same,MIC,Staphylococcus aureus [2],8 µg/mL
same,MIC,Staphylococcus aureus [3],4 µg/mL
same,MIC,Escherichia coli,> 64 µg/mL
same,MIC,Staphylococcus aureus [4],4 µg/mL
same,MIC,Staphylococcus aureus [5],4 µg/mL
same,MIC,Staphylococcus aureus [6],4 µg/mL
same,MIC,Staphylococcus aureus [7],4 µg/mL
same,Ratio,Staphylococcus aureus [8],2
same,Ratio,Staphylococcus aureus [9],2
same,Ratio,Staphylococcus aureus [10],2
same,Ratio,Staphylococcus aureus [11],2
